# Measurements taken from BindingDB's records for doi:10.1016/j.ejmech.2012.11.020 (North Maharashtra University, 2013).
# Target: T1, Pancreatic alpha-amylase (Sus scrofa, UniProt P00690)
# T1 sequence (P00690 whole entry): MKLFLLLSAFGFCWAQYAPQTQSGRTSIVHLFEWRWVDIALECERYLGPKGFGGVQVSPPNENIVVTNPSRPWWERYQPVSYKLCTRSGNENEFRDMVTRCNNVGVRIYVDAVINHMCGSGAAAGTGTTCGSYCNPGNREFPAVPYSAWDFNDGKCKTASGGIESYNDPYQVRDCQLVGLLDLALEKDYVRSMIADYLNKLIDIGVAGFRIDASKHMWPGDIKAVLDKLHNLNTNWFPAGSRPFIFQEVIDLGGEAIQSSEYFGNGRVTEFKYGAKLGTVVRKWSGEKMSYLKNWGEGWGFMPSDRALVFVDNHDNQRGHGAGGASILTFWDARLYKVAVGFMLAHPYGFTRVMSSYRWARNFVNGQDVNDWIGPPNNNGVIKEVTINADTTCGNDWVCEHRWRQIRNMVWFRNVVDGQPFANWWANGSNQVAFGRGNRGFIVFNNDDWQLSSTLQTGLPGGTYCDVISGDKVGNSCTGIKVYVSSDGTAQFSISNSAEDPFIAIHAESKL
# Assay: Inhibition of pig pancreatic alpha-amylase by Bernfeld method
row,IC50 [µM],Compound
1,17.9,CCOc1ccc2nc(N=C(CC(=O)c3ccc(Cl)cc3)SC)sc2c1
2,17.8,CSC(CC(=O)c1ccc(Br)cc1)=Nc1nc2ccccc2s1
